Assay results published in PubChem BioAssay AID330 (DTP/NCI, 2004).
Inconclusive results and toxic doses are left out.

Test system: P388 leukemia ip, CD2F1 mice, survival T/C
Test: NCI In Vivo Anticancer Drug Screen. Data for tumor model P388 Leukemia (intraperitoneal) in CD2F1 (CDF1) mice
Settings: endpoint: median survival time, higher = longer survival
Procedure, shortened: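 Mice carrying the transplanted tumor received test compound or vehicle. Survival was recorded in each group, and the value is the treated-group measurement divided by that of the vehicle-treated control group.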

[1] = dose: 25.0 mg/kg/injection, schedule: Q01DX009 (ip), vehicle: other
[2] = dose: 50.0 mg/kg/injection, schedule: Q01DX009 (ip), vehicle: other
[3] = dose: 100.0 mg/kg/injection, schedule: Q01DX009 (ip), vehicle: other
[4] = dose: 200.0 mg/kg/injection, schedule: Q01DX009 (ip), vehicle: other
[5] = dose: 60.0 mg/kg/injection, schedule: Q01DX005 (ip), vehicle: Klucel (hydroxypropylcellulose) (HPC)
[6] = dose: 120.0 mg/kg/injection, schedule: Q01DX005 (ip), vehicle: Klucel (hydroxypropylcellulose) (HPC)
[7] = dose: 240.0 mg/kg/injection, schedule: Q01DX005 (ip), vehicle: Klucel (hydroxypropylcellulose) (HPC)
[8] = dose: 50.0 mg/kg/injection, schedule: Q01DX009 (ip), vehicle: Klucel (hydroxypropylcellulose) (HPC)
[9] = dose: 100.0 mg/kg/injection, schedule: Q01DX009 (ip), vehicle: Klucel (hydroxypropylcellulose) (HPC)
[10] = dose: 200.0 mg/kg/injection, schedule: Q01DX009 (ip), vehicle: Klucel (hydroxypropylcellulose) (HPC)
[11] = dose: 50.0 mg/kg/injection, schedule: Q01DX005 (ip), vehicle: saline with Tween-80
[12] = dose: 100.0 mg/kg/injection, schedule: Q01DX005 (ip), vehicle: saline with Tween-80
[13] = dose: 200.0 mg/kg/injection, schedule: Q01DX005 (ip), vehicle: saline with Tween-80
[14] = dose: 50.0 mg/kg/injection, schedule: Q01DX009 (ip), vehicle: saline with Tween-80
[15] = dose: 100.0 mg/kg/injection, schedule: Q01DX009 (ip), vehicle: saline with Tween-80
[16] = dose: 200.0 mg/kg/injection, schedule: Q01DX009 (ip), vehicle: saline with Tween-80
[17] = dose: 12.5 mg/kg/injection, schedule: Q01DX009 (ip), vehicle: Klucel (hydroxypropylcellulose) (HPC)
[18] = dose: 25.0 mg/kg/injection, schedule: Q01DX009 (ip), vehicle: Klucel (hydroxypropylcellulose) (HPC)
[19] = dose: 100.0 mg/kg/injection, schedule: Q01DX001 (ip), vehicle: saline with Tween-80
[20] = dose: 200.0 mg/kg/injection, schedule: Q01DX001 (ip), vehicle: saline with Tween-80
[21] = dose: 400.0 mg/kg/injection, schedule: Q01DX001 (ip), vehicle: saline with Tween-80
[22] = dose: 60.0 mg/kg/injection, schedule: Q01DX005 (ip), vehicle: saline with Tween-80
[23] = dose: 120.0 mg/kg/injection, schedule: Q01DX005 (ip), vehicle: saline with Tween-80
[24] = dose: 240.0 mg/kg/injection, schedule: Q01DX005 (ip), vehicle: saline with Tween-80

## COC(=O)C(NC(=O)C(Cc1c[nH]c2ccccc12)NC(=O)OC(C)(C)C)C(C)C (stereo unspecified)
dose: 12.5 mg/kg/injection, schedule: Q01DX009 (ip), vehicle: other
  T/C: 96 % of control
[1]
  T/C: 90 % of control
[2]
  T/C: 91 % of control
[3]
  T/C: 109 % of control
[4]
  T/C: 114 % of control

## Cn1c(=O)[nH]c2c(c1=O)CCCN2
dose: 100.0 mg/kg/injection, schedule: Q04DX002 (ip), vehicle: Klucel (hydroxypropylcellulose) (HPC)
  T/C: 104 % of control
dose: 200.0 mg/kg/injection, schedule: Q04DX002 (ip), vehicle: Klucel (hydroxypropylcellulose) (HPC)
  T/C: 98 % of control
dose: 400.0 mg/kg/injection, schedule: Q04DX002 (ip), vehicle: Klucel (hydroxypropylcellulose) (HPC)
  T/C: 98 % of control

## c1ccc2c(SCCCCCCCCCSc3c4ccccc4nc4ccccc34)c3ccccc3nc2c1
[5]
  T/C: 107 % of control
[6]
  T/C: 104 % of control
[7]
  T/C: 90 % of control

## Cc1c(N2CCCC2)cc2c(c1NC(=O)c1ccccc1Cl)C(C)(C)CC2(C)C
[8]
  T/C: 99 % of control
[9]
  T/C: 100 % of control
[10]
  T/C: 99 % of control

## CC(C)(C)OC(=O)NC(COCc1ccccc1)C(=O)O (stereo unspecified)
[11]
  T/C: 103 % of control
[12]
  T/C: 98 % of control
[13]
  T/C: 97 % of control

## O=C1c2cccc(NCC3CO3)c2C(=O)c2cccc(NCC3CO3)c21 (stereo unspecified)
dose: 0.75 mg/kg/injection, schedule: Q01DX005 (ip), vehicle: Klucel (hydroxypropylcellulose) (HPC)
  T/C: 99 % of control
dose: 1.5 mg/kg/injection, schedule: Q01DX005 (ip), vehicle: Klucel (hydroxypropylcellulose) (HPC)
  T/C: 107 % of control
dose: 3.0 mg/kg/injection, schedule: Q01DX005 (ip), vehicle: Klucel (hydroxypropylcellulose) (HPC)
  T/C: 100 % of control
dose: 6.0 mg/kg/injection, schedule: Q01DX005 (ip), vehicle: Klucel (hydroxypropylcellulose) (HPC)
  T/C: 96 % of control

## CN(C)CCOc1ccccc1Cc1ccccc1
[14]
  T/C: 95 % of control
[15]
  T/C: 100 % of control
[16]
  T/C: 118 % of control

## CC(Cl)C(=O)NN=C(c1ccccc1)c1ccccc1 (stereo unspecified)
dose: 42.0 mg/kg/injection, schedule: Q01DX009 (ip), vehicle: saline
  T/C: 94 % of control
dose: 84.0 mg/kg/injection, schedule: Q01DX009 (ip), vehicle: saline
  T/C: 90 % of control
dose: 168.0 mg/kg/injection, schedule: Q01DX009 (ip), vehicle: saline
  T/C: 105 % of control

## c1cc2ccc3ccc(C4CO4)c4ccc(c1)c2c34 (stereo unspecified)
dose: 6.25 mg/kg/injection, schedule: Q01DX009 (ip), vehicle: Klucel (hydroxypropylcellulose) (HPC)
  T/C: 99 % of control
[17]
  T/C: 103 % of control
[18]
  T/C: 101 % of control

## O=C(O)CCc1c(-c2ccccc2)c(-c2ccccc2)c2n1CCC2
[19]
  T/C: 98 % of control
[20]
  T/C: 100 % of control
[21]
  T/C: 97 % of control

## Nc1nc(I)c2ncn(C3OC(CO)C(O)C3O)c2n1 (stereo unspecified)
[11]
  T/C: 98 % of control
[12]
  T/C: 92 % of control
[13]
  T/C: 96 % of control

## Cc1ccc(/C=N/NC(=O)CNC(=O)c2ccccc2)cc1
[22]
  T/C: 97 % of control
[23]
  T/C: 92 % of control
[24]
  T/C: 97 % of control

## [Br][Hg][CH]1CCC2CCCC1O2 (stereo unspecified)
[17]
  T/C: 89 % of control
[18]
  T/C: 90 % of control

## COC(=O)C(Br)CN1C(=O)c2ccccc2C1=O (stereo unspecified)
[1]
  T/C: 102 % of control
[2]
  T/C: 101 % of control
[3]
  T/C: 106 % of control
[4]
  T/C: 104 % of control
dose: 400.0 mg/kg/injection, schedule: Q01DX009 (ip), vehicle: other
  T/C: 104 % of control

## Nc1ncc(CCCCc2ccccc2)c(=O)[nH]1
[19]
  T/C: 100 % of control
[20]
  T/C: 104 % of control
[21]
  T/C: 100 % of control

## CC1=C(C)C(=O)C(C(C)(C)CC(=O)N(C)/N=N/c2nc[nH]c2C(N)=O)=C(C)C1=O
[12]
  T/C: 155 % of control
[13]
  T/C: 174 % of control

## COC(=O)C(Cc1cn(C(O)(NC(=O)OCc2ccccc2)C(F)(F)F)cn1)NC(=O)C(NC(=O)C(CC(C)C)NC(=O)C(CSC(c1ccccc1)(c1ccccc1)c1ccccc1)NC(=O)OCc1ccccc1)C(C)C (stereo unspecified)
[5]
  T/C: 91 % of control
[6]
  T/C: 110 % of control
[7]
  T/C: 96 % of control

## O=C(O)Cc1ccc2c(c1)C(=O)c1ccccc1CO2
[14]
  T/C: 94 % of control
[15]
  T/C: 103 % of control
[16]
  T/C: 100 % of control

## Cc1cc(=O)n2c(n1)sc1cc(Cl)ccc12
dose: 18.75 mg/kg/injection, schedule: Q04DX002 (ip), vehicle: Klucel (hydroxypropylcellulose) (HPC)
  T/C: 102 % of control
dose: 37.5 mg/kg/injection, schedule: Q04DX002 (ip), vehicle: Klucel (hydroxypropylcellulose) (HPC)
  T/C: 93 % of control
dose: 75.0 mg/kg/injection, schedule: Q04DX002 (ip), vehicle: Klucel (hydroxypropylcellulose) (HPC)
  T/C: 101 % of control

## O=C(NC(CC(NC(=O)OCc1ccccc1)NC(=O)OCc1ccccc1)NC(=O)OCc1ccccc1)OCc1ccccc1
[22]
  T/C: 89 % of control
[23]
  T/C: 91 % of control
[24]
  T/C: 103 % of control

## O=CC1C2C=CCC12 (stereo unspecified)
[15]
  T/C: 113 % of control
[16]
  T/C: 118 % of control
dose: 400.0 mg/kg/injection, schedule: Q01DX009 (ip), vehicle: saline with Tween-80
  T/C: 113 % of control

## COC(=O)C1CCC(=O)N1Cc1csc(-c2ccccc2)n1 (stereo unspecified)
[22]
  T/C: 106 % of control
[23]
  T/C: 100 % of control
[24]
  T/C: 106 % of control

## CC(C)=CCC[C@](C)(O[C@@H]1O[C@H](CO)[C@@H](O)[C@H](O)[C@H]1O)[C@H]1CC[C@]2(C)[C@@H]1[C@H](O)C[C@@H]1[C@@]3(C)CC[C@H](O)C(C)(C)[C@@H]3[C@@H](O[C@@H]3O[C@H](CO)[C@@H](O)[C@H](O)[C@H]3O)C[C@]12C
dose: 50.0 mg/kg/injection, schedule: Q01DX009 (ip), vehicle: saline
  T/C: 105 % of control
dose: 100.0 mg/kg/injection, schedule: Q01DX009 (ip), vehicle: saline
  T/C: 106 % of control
dose: 200.0 mg/kg/injection, schedule: Q01DX009 (ip), vehicle: saline
  T/C: 106 % of control

## O=S1(=O)C2C=CC1C(Br)C(Br)CC2 (stereo unspecified)
[17]
  T/C: 102 % of control
[18]
  T/C: 100 % of control
[8]
  T/C: 89 % of control
[9]
  T/C: 96 % of control
[10]
  T/C: 98 % of control

## Clc1c2c(c(Cl)c3c1=Nc1ccc4ccccc4c1S3)=Nc1ccc3ccccc3c1S2
dose: 100.0 mg/kg/injection, schedule: Q04DX003 (ip), vehicle: saline with Tween-80
  T/C: 107 % of control
dose: 200.0 mg/kg/injection, schedule: Q04DX003 (ip), vehicle: saline with Tween-80
  T/C: 113 % of control
dose: 400.0 mg/kg/injection, schedule: Q04DX003 (ip), vehicle: saline with Tween-80
  T/C: 115 % of control

## Cc1nc(Cl)c2c3c(sc2n1)CCCC3
dose: 18.75 mg/kg/injection, schedule: Q01DX001 (ip), vehicle: saline sonified
  T/C: 95 % of control
dose: 37.5 mg/kg/injection, schedule: Q01DX001 (ip), vehicle: saline sonified
  T/C: 100 % of control
dose: 75.0 mg/kg/injection, schedule: Q01DX001 (ip), vehicle: saline sonified
  T/C: 100 % of control

## COC1=C2CCC3c4cc(OC)c(OC)cc4CC[N+]3=C2CC1 (stereo unspecified)
dose: 25.0 mg/kg/injection, schedule: Q01DX005 (ip), vehicle: Klucel (hydroxypropylcellulose) (HPC)
  T/C: 97 % of control
dose: 50.0 mg/kg/injection, schedule: Q01DX005 (ip), vehicle: Klucel (hydroxypropylcellulose) (HPC)
  T/C: 99 % of control
dose: 100.0 mg/kg/injection, schedule: Q01DX005 (ip), vehicle: Klucel (hydroxypropylcellulose) (HPC)
  T/C: 113 % of control
